The record followed here is patent US9617237B2, “Partially saturated tricyclic compounds and methods of making and using same” (Zafgen, Inc., priority 2011, dated 2017).

Structures are written as SMILES. Structures can show the parent of a compound that is named as a salt.

This assay addresses T1, recombinant human MetAP2 (Homo sapiens, UniProt P50579).
T1 construct: made in house; host or cells: Sf9 insect cells
Briefly: Inhibition of recombinant human MetAP2 activity (fluorescence, MAS substrate, amino acid oxidase/Amplex red). Type of assay: biochemical. The note with it: manganese enzyme; 0.75 mM Methionine-Alanine-Serine (MAS) substrate; 30 minutes at 25° C.; pH 7.5; 1% DMSO. How it is done: Compounds are tested for their capacity to inhibit recombinant human MetAP2 activity using the following assay.
Human recombinant MetAP2 expressed in Sf9 cells followed by affinity purification and EDTA treatment to remove endogenous active site cation was dialysed against MnCl2 to produce the manganese enzyme used in the assay. The assay was carried out for 30 minutes at 25° C. in 50 mM HEPES buffer containing 100 mM NaCl, pH 7.5 the presence of 0.75 mM Methionine-Alanine-Serine (MAS) substrate and 50 μg/ml amino acid oxidase using a dilution of purified MetAP2 giving >3-fold signal: noise. Cleavage of the substrate by MetAP2 and oxidation of free methionine by amino acid oxidase was detected and quantified using fluorescence generated by Amplex red (10-acetyl-3,7-dihydroxyphenoxazine) in combination with horseradish peroxidase which detects H2O2 released during the oxidation step. The fluorescent signal was detected using a multiwell fluorimeter. Compounds were diluted in DMSO prior to addition to assay buffer, the final DMSO concentration in the assay being 1%.
IC50 values are calculated using the XLfit software package (version 2.0.5).

T1 sequence (P50579 whole entry): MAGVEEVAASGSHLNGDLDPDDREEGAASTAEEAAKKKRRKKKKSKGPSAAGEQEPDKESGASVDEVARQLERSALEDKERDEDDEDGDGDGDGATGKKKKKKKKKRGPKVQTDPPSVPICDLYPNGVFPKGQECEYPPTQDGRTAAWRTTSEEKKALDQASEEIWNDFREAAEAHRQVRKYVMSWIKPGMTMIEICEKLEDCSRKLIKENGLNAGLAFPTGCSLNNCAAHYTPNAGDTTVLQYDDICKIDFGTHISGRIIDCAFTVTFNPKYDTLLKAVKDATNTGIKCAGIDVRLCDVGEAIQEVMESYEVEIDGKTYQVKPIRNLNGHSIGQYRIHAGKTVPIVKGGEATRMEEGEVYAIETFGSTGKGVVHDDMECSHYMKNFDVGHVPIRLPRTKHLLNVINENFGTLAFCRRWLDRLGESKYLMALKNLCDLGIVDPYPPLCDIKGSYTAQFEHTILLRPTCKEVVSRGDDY

Turning to `CCN1CCCC1C(=O)NCc1cc(F)ccc1S(=O)(=O)Nc1ccc2c(c1C(=O)O)OCC1CC21` (mixture of isomers) [(1aRS,7bSR)-5-{2-[((S)-1-Ethylpyrrolidin-2-yl)cabonyl-aminomethyl]-4-fluorobenzenesulfonylamino}-1,1a,2,7b-tetrahydrocyclopropa[c]chromene-4-carboxylic acid], the IC50 is below 0.05 µM.

Regarding `CCN1CC[C@@H](C(=O)NCc2cc(F)ccc2S(=O)(=O)Nc2ccc3c(c2C(=O)O)OC[C@@H]2C[C@H]32)C1` (mixture of isomers) [(1aRS,7bSR)-5-(2-{[((R)-1-Ethylpyrrolidine-3-carbonyl)amino]-methyl}-4-fluoro-benzenesulfonylamino)-1,1a,2,7b-tetrahydro-cyclopropa[c]chromene-4-carboxylic acid], the IC50 is 0.05 to 0.5 µM.

As to `CCN1CC[C@H](OCc2cc(F)ccc2S(=O)(=O)Nc2ccc3c(c2C(=O)O)OC[C@@H]2C[C@H]32)C1` [(1aR,7bS)-5-[2-((S)-1-Ethylpyrrolidin-3-yloxymethyl)-4-fluoro-benzenesulfonylamino]-1,1a,2,7b-tetrahydrocyclopropa-[c]chromene-4-carboxylic acid], the IC50 fell in the range of 0.05 to 0.5 µM.

Turning to `O=C(O)c1c(NS(=O)(=O)c2ccc(F)cc2CCN2CCCC2)ccc2c1OC[C@@H]1C[C@H]21` (racemic) [(1aRS,7bSR)-5-{2-[2-(Pyrrolidin-1-yl)-ethyl]-4-fluorobenzene-sulfonylamino}-1,1a,2,7b-tetrahydrocyclopropa[c]chromene-4-carboxylic acid], the half-maximal inhibitory concentration (IC50) fell in the range of 0.05 to 0.5 µM.

Consider `O=C(O)c1c(NS(=O)(=O)c2ccc(F)cc2/C=C\CN2CCCC2)ccc2c1OC[C@@H]1C[C@H]21` (single isomer, unassigned) [(1aRS,7bSR)-5-{2[(Z)-3-(pyrrolidin-1-yl)prop-1-enyl]-4-fluorobenzenesulfonylamino}-1,1a,2,7b-tetrahydro-cyclopropa[c]chromene-4-carboxylic acid], for which the IC50 is 0.05 to 0.5 µM.

With `CCN1CC(c2cc(F)ccc2S(=O)(=O)Nc2ccc3c(c2C(=O)O)OC[C@@H]2C[C@H]32)C1` (racemic) [(1aRS,7bSR)-5-[2-(1-Ethylazetidin-3-yl)-4-fluorobenzene-sulfonylamino]-1,1a,2,7b-tetrahydro-cyclopropa[c]chromene-4-carboxylic acid], the concentration for half-maximal inhibition (IC50) was 0.05 to 0.5 µM.

As for `O=C(O)c1c(NS(=O)(=O)c2ccccc2N[C@H]2CN3CCC2CC3)ccc2c1OCC1CC21` (mixture of isomers) [(1aRS,7bSR)-5-{2-[((R)-1-Azabicyclo[2.2.2]oct-3-yl)amino]benzenesulfonyl-amino}-1,1a,2,7b-tetrahydrocyclopropa[c]chromene-4-carboxylic acid], the IC50 is below 0.05 µM.

For `CCN1CC[C@@H](OCc2cc(F)ccc2S(=O)(=O)Nc2ccc3c(c2C(=O)O)OC[C@@H]2C[C@H]32)C1` [(1aR,7bS)-5-[2-((R)-1-Ethylpyrrolidin-3-yloxymethyl)-4-fluoro-benzenesulfonylamino]-1,1a,2,7b-tetrahydrocyclopropa-[c]chromene-4-carboxylic acid], the IC50 fell in the range of 0.05 to 0.5 µM.

`O=C(O)c1c(NS(=O)(=O)c2ccc(F)cc2/C=C\CN2CCC2)ccc2c1OC[C@@H]1C[C@H]21` (racemic) [(1aRS,7bSR)-5-{2[(Z)-3-(Azetidin-1-yl)prop-1-enyl]-4-fluorobenzene-sulfonylamino}-1,1a,2,7b-tetrahydro-cyclopropa[c]chromene-4-carboxylic acid]: the IC50 was in the range of 0.05 to 0.5 µM.

As for `CCN(CC)C/C=C\c1cc(F)ccc1S(=O)(=O)Nc1ccc2c(c1C(=O)O)OCC1CC21` (stereo not drawn) [5-[2-((Z)-3-Diethylaminoprop-1-enyl)-4-fluorobenzenesulfonyl-amino]-1,1a,2,7b-tetrahydrocyclopropa[c]chromene-4-carboxylic acid], the IC50 is below 0.05 µM.

For `CCN1CCC[C@@H]1C(=O)NCc1cc(F)ccc1S(=O)(=O)Nc1ccc2c(c1C(=O)O)OC[C@@H]1C[C@H]21` (mixture of isomers) [(1aRS,7bSR)-5-(2-{[((R)-1-Ethylpyrrolidine-2-yl)carbonyl-amino]methyl}-4-fluorobenzenesulfonylamino)-1,1a,2,7b-tetrahydrocyclopropa[c]chromene-4-carboxylic acid], the half-inhibitory concentration (IC50) lay in the range of 0.05 to 0.5 µM.

On to `O=C(O)c1c(NS(=O)(=O)c2ccccc2)ccc2c3c(cnc12)OCC3` [7-(Benzenesulfonylamino))-1,2-dihydrofuro[2,3-c]quinoline-6-carboxylic acid formate salt], for which the IC50 is below 0.05 µM.

As a reminder, the IC50 is the concentration that gives 50% inhibition.
